Source: PMC11121381, “ABCG2 Mediates Resistance to the Dual EGFR and PI3K Inhibitor MTX-211 in Cancer Cells” (International Journal of Molecular Sciences, 2024)

What was measured:
[1] = biological target: T1, ABCG2 (Homo sapiens, UniProt Q9UNQ0); experiment: vanadate-sensitive ATPase stimulation (endpoint Pi release) in ABCG2 membrane vesicles; supported by LC-MS/MS cell accumulation with and without Ko143; format: biochemical; settings: read-out: % of basal ATPase activity (peak stimulation)
T1 construct: human ABCG2 in membrane vesicles of High-Five insect cells
T1 sequence (Q9UNQ0 1-655): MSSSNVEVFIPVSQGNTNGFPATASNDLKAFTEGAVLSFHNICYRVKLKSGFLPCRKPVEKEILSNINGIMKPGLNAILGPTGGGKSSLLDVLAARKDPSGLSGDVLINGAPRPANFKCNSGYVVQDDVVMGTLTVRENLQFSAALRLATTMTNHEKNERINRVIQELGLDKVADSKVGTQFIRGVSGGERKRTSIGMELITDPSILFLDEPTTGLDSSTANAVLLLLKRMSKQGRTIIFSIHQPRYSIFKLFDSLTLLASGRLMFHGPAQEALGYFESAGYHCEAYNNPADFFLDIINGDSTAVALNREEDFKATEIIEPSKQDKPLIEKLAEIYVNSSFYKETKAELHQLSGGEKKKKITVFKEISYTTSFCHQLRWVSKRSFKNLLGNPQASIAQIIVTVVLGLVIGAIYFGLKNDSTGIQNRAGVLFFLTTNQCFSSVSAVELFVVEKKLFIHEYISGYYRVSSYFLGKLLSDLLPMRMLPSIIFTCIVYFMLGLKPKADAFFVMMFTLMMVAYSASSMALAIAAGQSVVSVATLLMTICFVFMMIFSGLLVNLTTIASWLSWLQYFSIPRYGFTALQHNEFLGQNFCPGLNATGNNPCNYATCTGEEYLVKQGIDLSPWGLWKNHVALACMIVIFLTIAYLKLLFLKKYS

[2] = biological target: T2, epidermal growth factor receptor (EGFR) (Homo sapiens, UniProt P00533); experiment: inhibition of EGF-induced EGFR phosphorylation (Tyr1068) in cells, immunoblot; format: cell-based
T2 construct: endogenous EGFR in S1 human colon cancer cells
T2 sequence (P00533 25-1210): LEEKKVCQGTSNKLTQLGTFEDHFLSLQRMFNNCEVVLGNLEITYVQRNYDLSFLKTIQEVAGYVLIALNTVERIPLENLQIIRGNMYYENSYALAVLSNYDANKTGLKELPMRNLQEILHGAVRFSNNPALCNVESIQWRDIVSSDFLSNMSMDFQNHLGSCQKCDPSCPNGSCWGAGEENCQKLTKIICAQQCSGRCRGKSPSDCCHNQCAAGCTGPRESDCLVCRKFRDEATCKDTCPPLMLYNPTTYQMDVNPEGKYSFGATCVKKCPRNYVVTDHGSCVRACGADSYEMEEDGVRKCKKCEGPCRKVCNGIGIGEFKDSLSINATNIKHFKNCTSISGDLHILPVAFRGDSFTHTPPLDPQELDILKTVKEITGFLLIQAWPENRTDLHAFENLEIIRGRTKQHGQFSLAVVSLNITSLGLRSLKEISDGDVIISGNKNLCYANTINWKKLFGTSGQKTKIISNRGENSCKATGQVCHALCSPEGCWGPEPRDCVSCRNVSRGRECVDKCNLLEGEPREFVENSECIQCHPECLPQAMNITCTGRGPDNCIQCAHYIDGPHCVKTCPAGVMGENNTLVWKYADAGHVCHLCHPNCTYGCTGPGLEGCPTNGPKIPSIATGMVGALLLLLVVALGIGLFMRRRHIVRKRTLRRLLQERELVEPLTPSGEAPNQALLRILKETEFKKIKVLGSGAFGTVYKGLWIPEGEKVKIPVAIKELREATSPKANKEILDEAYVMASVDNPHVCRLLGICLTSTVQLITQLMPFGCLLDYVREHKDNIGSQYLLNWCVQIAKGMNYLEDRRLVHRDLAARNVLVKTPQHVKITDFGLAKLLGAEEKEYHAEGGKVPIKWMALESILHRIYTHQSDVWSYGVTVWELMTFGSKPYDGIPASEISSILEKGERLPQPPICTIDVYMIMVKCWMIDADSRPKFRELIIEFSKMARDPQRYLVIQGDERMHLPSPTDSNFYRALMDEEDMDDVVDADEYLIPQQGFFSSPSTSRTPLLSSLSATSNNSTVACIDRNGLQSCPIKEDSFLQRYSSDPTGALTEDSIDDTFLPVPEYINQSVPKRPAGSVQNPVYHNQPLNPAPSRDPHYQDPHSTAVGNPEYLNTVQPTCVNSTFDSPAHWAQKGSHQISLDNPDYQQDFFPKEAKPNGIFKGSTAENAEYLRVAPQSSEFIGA

CS(=O)(=O)Nc1cc(-c2ccc3ncnc(Nc4ccc(F)c(Cl)c4)c3c2)cnc1Cl [MTX-211]
Emax [1]: 157% | IC50 [2]: 6.64 ± 1.27 µM
